Assay results reported in paper PMC5431889, “Stapled BIG3 helical peptide ERAP potentiates anti-tumour activity for breast cancer therapeutics” (Scientific Reports, 2017).
Where a SMILES comes first, the peptide text is derived from it.

Columns and labels:
MCF-7 cells [1] = format: cell-based, human; conditions: 96 h
Source text: After […] ERAP). Microarray analysis. […]

[2] = system: BIG3-PHB2 complex and ERα signalling in tumours; experiment: Co-immunoprecipitation, RT-PCR and immunoblot analysis of excised KPL-3C tumours; format: in vivo, mice
Protocol: Immunoblot analyses were performed as described previously. After SDS-PAGE, the membranes were blocked with 4% BlockAce solution (Dainippon Pharmaceutical) for 3 h and then incubated with antibodies against the following proteins: BIG3 (1:1,000)[10]; PHB2 (1:1,000, Abcam); Akt (1:1,000), phospho-Akt (S473) (587F11, 1:1,000); p44/42 MAPK (1:1,000), phospho-p44/42 MAPK (T202/Y204) (1:1,000); mTOR (1:1,000); phospho-mTOR (S2448) (1:1,000); S6K (1:1,000); phopho-S6K (T389) (1:1,000); α/β-tubulin (1:1,000) (Cell Signalling Technology); and LMNB1 (1:100, Sigma). After incubation with an HRP-conjugated secondary antibody (anti-mouse IgG-HRP, 1:5,000; anti-rat IgG-HRP; 1:5,000; or anti-rabbit IgG-HRP, 1:1,000; Santa Cruz Biotechnology) for 1 h, the blots were developed with an enhanced chemiluminescence (ECL) system (GE Healthcare) and scanned using an Image Reader LAS-3000 mini (Fujifilm). All the experiments were performed in triplicate at a minimum. Full-length images of immunoblots are shown in Supplementary Fig. S5. […]
The expression of the ERα target genes (TFF1 and CCND1) was evaluated by real-time RT-PCR as described previously. Each sample was normalized to the β 2-MG mRNA content, and the results were expressed as the fold increase over untreated cells (set at 1.0). […]
The tumour volume was measured with calipers, after which time the mice were sacrificed and tumours excised. […]

MCF-7 cells [3] = conditions: E2-dependent breast cancer cell growth; cited from earlier work
Protocol: We previously developed a dominant-negative peptide, ER α activity-regulator synthetic peptide (ERAP), which specifically disrupts the BIG3-PHB2 interaction and inhibits multiple ERα-signalling pathways driving breast cancer cell growth by reactivating tumour-suppressive activity of PHB2[10]. […] However, its inhibitory effect was only maintained for 24 h, most likely due to its high susceptibility to proteolytic degradation.

[4] = system: KPL-3C orthotropic breast cancer xenografts; experiment: In vivo tumour growth inhibition, KPL-3C orthotopic xenografts; design: species or system mice; conditions: intraperitoneal, E2 6 μg per day, n = 5
Protocol: KPL-3C cell suspensions (1 × 10^7 cells per mouse) were mixed with an equal volume of Matrigel (Corning) and injected (200 μL total) into the mammary fat pads of 6-week-old female BALB/c nude mice (Charles River Laboratories). The mice were housed in a pathogen-free isolation facility with a 12 h light/dark cycle and were fed rodent chow and water ad libitum. The tumours developed over a period of a few days, reaching sizes of approximately 100 mm^3 [calculated as 1/2 × (width × length^2)], upon injection of 6 μg per day of E2 solution to the neck skin. For intraperitoneal administration, the mice were randomized into 10 treatment groups (five animals per group): (1) no treatment; (2) 6 μg per day E2; (3) E2 + 1.4 mg kg^−1 day^−1 ERAP daily; (4) E2 + 1.4 mg kg^−1 day^−1 ERAP every 4 days; (5) E2 + 14 mg kg^−1 day^−1 ERAP daily; (6) E2 + 14 mg kg^−1 day^−1 ERAP every 4 days; (7) E2 + 1.4 mg kg^−1 day^−1 stERAP-6 daily; (8) E2 + 1.4 mg kg^−1 day^−1 stERAP-6 every 4 days; (9) E2 + 14 mg kg^−1 day^−1 stERAP-6 daily; and 10() E2 + 14 mg kg^−1 day^−1 stERAP-6 every 4 days. For intravenous administration, the mice were randomized into 10 treatment groups (five animals per group): (1) no treatment; (2) 6 μg per day E2; (3) E2 + 0.1 mg kg^−1 day^−1 stERAP-6 daily; (4) E2 + 1 mg kg^−1 day^−1 stERAP-6 daily; (5) E2 + 10 mg kg^−1 day^−1 stERAP-6 daily; (6) E2 + 0.1 mg kg^−1 day^−1 stERAP-6 weekly; (7) E2 + 1 mg kg^−1 day^−1 stERAP-6 weekly; (8) E2 + 10 mg kg^−1 day^−1 stERAP-6 weekly; (9) E2 + 1 mg kg^−1 day^−1 alanine-mutant stERAP-6 daily; and (10) E2 + 10 mg kg^−1 day^−1 alanine-mutant stERAP-6 daily. E2 was delivered via the application of a solution to the neck skin as previously noted.
The tumour volume was measured with calipers, after which time the mice were sacrificed and tumours excised. TGI was calculated according to the formula: [1 − (T − T0)/(C − C0)] × 100, where T and T0 are the mean tumour volumes at day 28 or 35 and day 1, respectively, for the experimental group, and C and C0 are those for the E2-treated group. The organs (heart, lung, liver, kidney, pancreas, and brain) were also immediately removed. A portion of each tissue was fixed in 10% neutral formalin for histological examination, while the remaining tissue sample was frozen and preserved at −80 °C for subsequent western blot analysis. All the experiments were performed in accordance with the guidelines of the animal care and use facility at Tokushima University.

TAM-R MCF-7 cells = experiment: MTT assay, tamoxifen-resistant (TAM-R) MCF-7 cell growth; format: cell-based, human; conditions: 10 nM E2 and 1 μM tamoxifen, single treatment at 0 h, up to 96 h; three independent experiments
Protocol: (a) MTT assays evaluating the inhibitory effect of unstapled, original ERAP (left) and stERAP-6 (right) on the growth of tamoxifen-resistant (TAM-R) MCF-7 cells. TAM-R MCF-7 cells were treated with unstapled original ERAP or stERAP-6 in the presence of 10 nM E2 and 1 μM tamoxifen (TAM) at 0 h. The data represent the mean ± s.d. of three independent experiments.

[5] = Circular dichroism, α-helical content; format: physicochemical; conditions: CD 185-265 nm, 25 °C, 50 μg mL−1 in 10 mM sodium phosphate buffer pH 7.0
Protocol: CD spectrum in the range of 185 to 265 nm was recorded at 25 °C in a 2 mm-path quartz cuvette. Protein concentration was 50 μg mL^−1 in 10 mM sodium phosphate buffer (pH 7.0). Molar ellipticity [θ] was calculated.

MCF-7 cells [6] = experiment: Cell cycle assay by flow cytometry (propidium iodide); format: cell-based, human; conditions: 10 nM E2, 10 μM stERAP-6, 1 μM tamoxifen
Protocol: Cells were fixed in cold 70% ethanol, incubated with 20 µg mL^−1 propidium iodide (Sigma) and 1 mg mL^−1 ribonuclease A (Sigma), and analysed by flow cytometry using a FACSCalibur with CellQuest software (BD).

prohibitin 2 = prohibitin 2 (human (endogenous in MCF-7 and KPL-3C), UniProt Q99623 1-299); experiment: cell-based or functional assay
prohibitin 2, sequence (Q99623 whole entry): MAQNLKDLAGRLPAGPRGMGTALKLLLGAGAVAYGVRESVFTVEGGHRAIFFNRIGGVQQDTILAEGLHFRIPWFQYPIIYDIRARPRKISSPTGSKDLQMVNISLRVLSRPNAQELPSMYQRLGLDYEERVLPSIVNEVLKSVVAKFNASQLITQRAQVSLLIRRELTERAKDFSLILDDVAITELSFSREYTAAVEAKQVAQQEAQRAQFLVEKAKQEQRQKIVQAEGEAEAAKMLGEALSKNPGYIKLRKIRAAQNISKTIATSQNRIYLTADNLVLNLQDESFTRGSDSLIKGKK

[7] = molecular target: T1, His-tagged recombinant PHB2 (UniProt Q99623 1-299); experiment: SPR; Biacore 3000; recombinant PHB2 bound to a CM5 sensor chip, peptides as analytes at the indicated concentrations; BIAevaluation software; conditions: both partners purified
T1 construct: PHB2 (prohibitin 2), recombinant, His-tagged; also called His-PHB2; source: recombinant
T1 sequence (Q99623 whole entry): as above

CSCC[C@H](NC(=O)[C@H](CCC(N)=O)NC(=O)CNC(=O)CNC(=O)CNC(=O)[C@H](CCCNC(=N)N)NC(=O)[C@H](CCCNC(=N)N)NC(=O)[C@H](CCCNC(=N)N)NC(=O)[C@H](CCCNC(=N)N)NC(=O)[C@H](CCCNC(=N)N)NC(=O)[C@H](CCCNC(=N)N)NC(=O)[C@H](CCCNC(=N)N)NC(=O)[C@H](CCCNC(=N)N)NC(=O)[C@H](CCCNC(=N)N)NC(=O)[C@H](CCCNC(=N)N)NC(=O)[C@@H](N)CCCNC(=N)N)C(=O)N[C@@H](CC(C)C)C(=O)N[C@@H](CO)C(=O)N[C@@H](CC(=O)O)C(=O)N[C@@H](CC(C)C)C(=O)N[C@H](C(=O)N[C@@H](CC(C)C)C(=O)N[C@@H](CCC(N)=O)C(=O)N[C@@H](CC(C)C)C(=O)N[C@@H](CCCNC(=N)N)C(=O)N[C@@H](CCC(N)=O)C(=O)N[C@@H](CCCNC(=N)N)C(=O)O)[C@@H](C)O [ERAP] (H-RRRRRRRRRRRGGGQMLSDLTLQLRQR-OH; N-terminus and C-terminus assumed)
IC50 (MCF-7 cells [1]): 7.97 µM
E2-induced expression of TFF1 and CCND1 and phosphorylation levels of Akt and MAPK in tumours ([2]; intraperitoneal treatment every 4 days for 28 days): did not
inhibition of endogenous BIG3-PHB2 complex formation in tumours ([2]; intraperitoneal treatment every 4 days, co-immunoprecipitation): but not with unstapled original ERAP
duration of inhibitory effect (MCF-7 cells [3]): 24 h
TGI on day 28 ([4]; 1.4 mg kg−1 every 4 days): 36.9%
TGI on day 28 ([4]; 1.4 mg kg−1 once a day for 28 days): 94.2%
TGI on day 28 ([4]; 14 mg kg−1 every 4 days): 40.3%
TGI on day 28 ([4]; 14 mg kg−1 once a day for 28 days): 94.5%
inhibition of growth of TAM-R MCF-7 cells (TAM-R MCF-7 cells): reduced after 24 h treatment
α-helical content [5]: 21.4%

CC/C(=C(\c1ccccc1)c1ccc(OCCN(C)C)cc1)c1ccccc1 [tamoxifen]
apoptotic (sub-G1) cell population (MCF-7 cells [6]): 7.44%

B1: ERα activity-regulator synthetic peptide (native ERAP; 11R-GGG-QMLSDLTLQLRQR) (peptide)
peptide: RRRRRRRRRRRGGGQMLSDLTLQLRQR
notes: membrane-permeable polyarginine (11R) and GGG linker, printed as 11R-GGG; also called unstapled original ERAP; dominant-negative peptide; source: synthetic peptide
IC50 of E2-dependent MCF-7 cell growth at 96 h after a single treatment (MTT); the peptide blocks BIG3-PHB2 (prohibitin 2): 7.97 µM
Kd [7]: 12.8 µM
